This is an account of results in ChEMBL document CHEMBL1201862, “PubChem BioAssay data set” (2004).

Among the test systems are SNB-75; M14; XF498; HT-29; OVCAR-8; UO-31; SK-MEL-28; LOX IMVI; 786-0; HOP-62; OVCAR-4; IGROV-1; OVCAR-3; SK-MEL-2; SF-539; SR; HCC 2998; HCT-15.
Assay in all cases: NCI-60 cell line screen, 48 h

The structures appear in SMILES notation.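 Cells were grown in 96-well plates and exposed to each compound for 48 hours at five concentrations; endpoints were interpolated linearly between bracketing concentrations, or set to the highest concentration if not reached. Abbreviation: GI50, concentration required for 50% inhibition of growth.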 Activity calls are given as the source filed them. Cut-off read from the data, not from the text of the source: active = GI50 up to about 1.1 µM and inactive = higher.

In the case of `C=C1C(=O)OC2C=C(CCC(C)=O)C(C)C(OC(C)=O)CC12` (stereo not drawn), the GI50 was 10.8 µM (inactive) in the assay on SNB-75; 5.42 µM (inactive) with M14; 12.9 µM (inactive) with XF498; 11.8 µM (inactive) in the assay with HT-29; 16.5 µM (inactive) with OVCAR-8; 13.6 µM (inactive) in the assay on UO-31. Besides, the GI50 in the assay with SK-MEL-28 was 8.26 µM (inactive); in the assay with LOX IMVI, 1.61 µM (inactive); with 786-0, 9.68 µM (inactive); in the assay with HOP-62, > 10 µM (inactive); with OVCAR-4 it was 13.1 µM (inactive); with IGROV-1, 21.5 µM (inactive). In addition, the GI50 with OVCAR-3 was 12.7 µM (inactive); with SK-MEL-2, 14.2 µM (inactive); with SF-539 it was 15.2 µM (inactive); in the assay with SR it was 11.8 µM (inactive); with HCC 2998 it was 9.93 µM (inactive); in the assay on HCT-15, 6.11 µM.
Take `Cc1ccc(/C=N/NS(=O)(=O)c2ccccc2)cc1`: the GI50 with SNB-75, with M14, in the assay on XF498, in the assay with HT-29, in the assay with OVCAR-8 and in the assay with UO-31 was > 100 µM (inactive) each time. For the same molecule, the GI50 in the assay on SK-MEL-28, in the assay with LOX IMVI, in the assay with 786-0, with HOP-62, with OVCAR-4 and with IGROV-1 was > 100 µM (inactive) in each case. Further, the GI50 with OVCAR-3 is > 100 µM (inactive); in the assay with SK-MEL-2, > 100 µM (inactive); in the assay on SF-539, > 100 µM (inactive); with SR it was > 100 µM (inactive); in the assay on HCC 2998, > 100 µM (inactive); with HCT-15, above 100 µM.
Take `C=CCC1(CN(C)C)CC/C(=C\c2ccc(Cl)cc2)C1=O` (stereo not drawn): the GI50 is 33 µM (inactive) in the assay with SNB-75; 23.7 µM (inactive) with M14; 77.6 µM (inactive) with XF498; 24.1 µM (inactive) in the assay with HT-29; 42.3 µM (inactive) in the assay with OVCAR-8; 41.5 µM (inactive) with UO-31. The GI50 in the assay on SK-MEL-28 is > 83.2 µM (inactive); in the assay on LOX IMVI, 23.8 µM (inactive); with 786-0, 38.1 µM (inactive); in the assay on HOP-62, > 100 µM (inactive); with OVCAR-4, 31 µM (inactive); in the assay with IGROV-1, 29.2 µM (inactive). Also, the GI50 with OVCAR-3 was 36.1 µM (inactive); with SK-MEL-2 it was > 100 µM (inactive); in the assay on SF-539, > 54.1 µM (inactive); in the assay with SR it was 0.0973 µM (active); with HCC 2998, 33.1 µM (inactive); in the assay with HCT-15 it was 25.1 µM.
`COC1OC(C)C2OC(C)(C)OC2C1OC(C)=O` (stereo not drawn): the GI50 with M14, with XF498, in the assay on HT-29, in the assay with OVCAR-8, with SK-MEL-28 and in the assay on LOX IMVI was > 100 µM (inactive) each time. Also, the GI50 with 786-0, in the assay on HOP-62, with OVCAR-4, in the assay with IGROV-1, in the assay on OVCAR-3 and in the assay on SF-539 was > 100 µM (inactive) each time. Further, the GI50 is > 100 µM (inactive) in the assay on SR, > 100 µM (inactive) with HCC 2998 and above 100 µM with HCT-15.
As for `C[C@]12CC[C@H](OCCC#N)CC1=CC[C@@H]1C2CC[C@]2(C)/C(=N/OCCC#N)CCC12` (stereo partly drawn), the GI50 is 28.1 µM (inactive) with SNB-75; 38.3 µM (inactive) with M14; 3.4 µM (inactive) with XF498; > 92.7 µM (inactive) with OVCAR-8; > 100 µM (inactive) with UO-31; > 74.6 µM (inactive) with SK-MEL-28. In addition, the GI50 with LOX IMVI is 5.7 µM (inactive); with 786-0, 33 µM (inactive); in the assay on HOP-62, > 69.2 µM (inactive); in the assay on OVCAR-4, 29 µM (inactive); in the assay with IGROV-1 it was > 100 µM (inactive); in the assay on OVCAR-3, > 21 µM (inactive). Besides, the GI50 in the assay on SK-MEL-2 was > 50.2 µM (inactive); with SF-539, 55 µM (inactive); in the assay with SR it was 4.43 µM (inactive); with HCC 2998, > 100 µM (inactive); in the assay on HCT-15, above 100 µM.
On to `O=C1C(=Cc2cccs2)C(=O)N(CCc2ccccc2)S(=O)(=O)N1CCc1ccccc1`, for which the GI50 in the assay with SNB-75, with M14, with XF498, in the assay on HT-29, in the assay with OVCAR-8 and in the assay on UO-31 was > 50 µM (inactive) throughout. Besides, the GI50 in the assay on SK-MEL-28 is > 50 µM (inactive); with LOX IMVI it was 28.9 µM (inactive); in the assay on 786-0, > 50 µM (inactive); in the assay with OVCAR-4, > 50 µM (inactive); in the assay on IGROV-1, 9.2 µM (inactive); in the assay with OVCAR-3, > 50 µM (inactive). Besides, the GI50 in the assay on SK-MEL-2 was > 50 µM (inactive); with SF-539, > 50 µM (inactive); in the assay on SR, > 50 µM (inactive); in the assay with HCC 2998 it was > 50 µM (inactive); with HCT-15, above 50 µM.
Take `O=C(CC1(O)C(=O)Nc2c(Cl)cc(Cl)cc21)c1ccc(F)cc1` (stereo not drawn): the GI50 with SNB-75 is 25.9 µM (inactive); in the assay with M14, 32.7 µM (inactive); in the assay on XF498 it was 14.4 µM (inactive); with HT-29 it was 27.3 µM (inactive); in the assay with OVCAR-8, 21.2 µM (inactive); in the assay on UO-31, 42.1 µM (inactive). The GI50 is 71.6 µM (inactive) in the assay on SK-MEL-28; 24.7 µM (inactive) in the assay with LOX IMVI; 19.8 µM (inactive) with 786-0; 48 µM (inactive) with HOP-62; 27.8 µM (inactive) in the assay with OVCAR-4; 28.3 µM (inactive) in the assay with IGROV-1. Further, the GI50 with OVCAR-3 is 37.6 µM (inactive); in the assay with SK-MEL-2 it was 46.8 µM (inactive); in the assay on SF-539, 28.4 µM (inactive); in the assay with SR it was 29.2 µM (inactive); in the assay with HCC 2998, 40 µM (inactive); with HCT-15 it was 30.6 µM.
Turning to `CC1(C)C(O)C[C@@H](O)[C@@]2(C)C1CC[C@]1(C)C2C[C@@H](O)[C@@H]2C([C@@]3(C)CC[C@@H](C(C)(C)O)O3)CCC21C` (stereo partly drawn), the GI50 with SNB-75 was 15 µM (inactive); in the assay with M14, 13.8 µM (inactive); with XF498, 18.2 µM (inactive); in the assay with HT-29 it was 17.6 µM (inactive); in the assay with OVCAR-8, 18.7 µM (inactive); in the assay on UO-31, 17.5 µM (inactive). For the same molecule, the GI50 with SK-MEL-28 was 13.8 µM (inactive); with LOX IMVI, 11 µM (inactive); with 786-0 it was 15.3 µM (inactive); in the assay with HOP-62, 16.6 µM (inactive); in the assay with OVCAR-4, 22.4 µM (inactive); with IGROV-1, 14.5 µM (inactive). Besides, the GI50 was 15.7 µM (inactive) in the assay on OVCAR-3; 14.7 µM (inactive) in the assay on SK-MEL-2; 14.2 µM (inactive) with SF-539; 8.83 µM (inactive) with SR; 17.5 µM (inactive) in the assay on HCC 2998; 12.6 µM in the assay with HCT-15.
Take `COC1(C)C(=O)N2C1N(C(=O)OCc1ccccc1)CC2(C)C` (stereo not drawn): the GI50 is 44.9 µM (inactive) with SNB-75; > 100 µM (inactive) with M14; > 100 µM (inactive) in the assay on XF498; > 100 µM (inactive) with HT-29; > 100 µM (inactive) in the assay on OVCAR-8; > 100 µM (inactive) in the assay with UO-31. In addition, the GI50 with SK-MEL-28, with LOX IMVI, in the assay with 786-0, with HOP-62, in the assay on OVCAR-4 and in the assay on IGROV-1 was > 100 µM (inactive) each time. For the same molecule, the GI50 in the assay on OVCAR-3 is > 100 µM (inactive); in the assay on SK-MEL-2, > 100 µM (inactive); in the assay with SF-539, > 100 µM (inactive); in the assay on SR, > 100 µM (inactive); in the assay with HCC 2998, > 100 µM (inactive); in the assay with HCT-15, above 100 µM.
In the case of `O=C(N/C(=C\c1cccc([N+](=O)[O-])c1)c1nc2c3c(ccc2[nH]1)C(=O)c1ccccc1C3=O)c1ccccc1`, the GI50 was 58.6 µM (inactive) in the assay with SNB-75; 45.5 µM (inactive) with M14; 57.9 µM (inactive) in the assay with XF498; 35.6 µM (inactive) in the assay on HT-29; 36.5 µM (inactive) in the assay on OVCAR-8; > 100 µM (inactive) in the assay on UO-31. Moreover, the GI50 is 19.9 µM (inactive) with SK-MEL-28; 26.1 µM (inactive) in the assay on 786-0; 37.8 µM (inactive) in the assay on HOP-62; 49.1 µM (inactive) in the assay with OVCAR-3; 35 µM (inactive) in the assay with SK-MEL-2; 21.4 µM (inactive) in the assay on SF-539. In addition, the GI50 in the assay on SR was 5.86 µM (inactive); in the assay with HCT-15, 15 µM.
On to `Cc1cccc(/N=C/c2ccc(N(CCC#N)S(=O)(=O)c3ccccc3)cc2C)c1`, for which the GI50 is 67 µM (inactive) in the assay on SNB-75; > 100 µM (inactive) with M14; > 100 µM (inactive) in the assay with XF498; > 100 µM (inactive) with HT-29; 42.9 µM (inactive) with OVCAR-8; 13.3 µM (inactive) in the assay with UO-31. Also, the GI50 with SK-MEL-28 is > 100 µM (inactive); in the assay with LOX IMVI, 17.6 µM (inactive); in the assay on 786-0, > 100 µM (inactive); in the assay with HOP-62 it was > 100 µM (inactive); in the assay on OVCAR-4, > 100 µM (inactive); with IGROV-1, > 100 µM (inactive). Moreover, the GI50 was > 100 µM (inactive) in the assay with OVCAR-3; > 100 µM (inactive) in the assay with SK-MEL-2; > 100 µM (inactive) with SF-539; > 100 µM (inactive) in the assay on HCC 2998; 98.6 µM in the assay with HCT-15.
